Experimental data as given in patent US20120088247A1, “MATERIALS AND METHODS FOR TREATING PATIENTS WITH TAXOXIFEN” (Indian University Research & Technology Corporatio, priority 2009, published 2012).

Tests used:
[1] = Plasma concentrations of tamoxifen and its metabolites (HPLC) in women with breast cancer taking tamoxifen, by UGT2B7 genotype and CYP2D6 score
From the text: Patients. […] Subjects for the registry were recruited from the Breast Oncology Program at the University of Michigan Comprehensive Cancer Center and the Indiana University Cancer Center. […] Patients were enrolled after they had completed all primary surgery, radiation, and adjuvant chemotherapy. Specimens and data from this registry has been sed for several other studies, as reported previously,[16],[6],[17].
Study design. […] At the indicated time points, medical histories, including a comprehensive list of current medications, were obtained, and blood samples (5 mL) were drawn. […] Blood was collected in heparin tubes, and plasma was separated within 1 hour of blood collection by centrifugation at 2060×g. All samples (plasma and whole blood) were transferred to cryogenic vials (Corning, Cambridge, Mass.), shipped to the laboratory of the Division of Clinical Pharmacology, Indiana University, on dry ice, and stored at −80° C. until analysis.
UGT 2B7 genotyping. Genomic deoxyribonucleic acid (DNA) was extracted from the leukocyte portion of whole blood by use of a QJAamp DNA Blood Mini Kit (Qiagen, Valencia, Calif.) and used for genotyping of UGT2B7 variants. UGT2B7 codon 268 genotypes were determined by real-time PCR assays using the TaqMan Drug Metabolism Genotyping Assay C—32449742—20 (Applied Biosystems, Foster City, Calif.) in the ABI 7900HT sequence detection system equipped with an autoloader in the Functional Genomics Core Facility at the Penn State College of Medicine. […] The same primers were used for both PCR and sequencing: sense, 5′-[…]-3′ (SEQ ID. No. 3), located +642-+670 from the UGT2B7 translation start site); and antisense, 5′-[…]-3′ (SEQ. ID. No. 4), located +1555-+1597 from the UGT2B7 translation start site.
CYP2D6 genotyping. Genomic DNA was extracted from whole blood. CYP2D6 genotyping was conducted using two different genotyping methods: The AmpliChip CYP450 Test (Roche Diagnostics, Indianapolis, Ind.) and the Luminex CYP450C CYP2D6 assay (TM Biosciences). The AmpliChip was used for 129 of the DNA samples. It tests for 33 CYP2D6 alleles (ie, *1 to *10AB, *11, *14A, *14B, *15, *17, *19, *20, *25, *26, *29 to *31, *35, *36, *40, *41, *1N, *2xN, *4xN, *10xN, *17xN, *35xN, and *41xN). The remaining 60 samples were genotyped using the Luminex CYP450 Test. It tests for 16 CYP2D6 alleles (ie, *2 through *12, *14, *15, *17, and *41). The genotypes of approximately 10-20% of the samples were confirmed by running both assays or by using independent Taqman or restriction fragment length polymorphism (RFLP) assays.
CYP2D6 Gene Score. The CYP2D6 alleles were assigned a value that reflects the expected relative activity of the CYP2D6 enzyme for which they code. Accordingly, fully functional CYP2D6 alleles (e.g. *1, *2, *33, *35) were assigned a score of 1. CYP2D6 alleles associated with reduced enzyme activity (e.g. *9,*10, *17, *29, *37, *41, *45, *46) were scored as 0.5.
CYP2D6 Inhibition Factor and CYP2D6 Activity Score. After calculating the expected activity of the CYP2D6 enzyme according to the genotype, the possible effects of known CYP2D6 inhibitors on the performance of the CYP2D6 protein were incorporated. […] This rule defines the CYP2D6 inhibition factor. The CYP2D6 Activity Score is expressed as the product of multiplying the CYP2D6 Gene Score by the Inhibitor factor, which is defined in the following equation: activity score=(gene score×inhibition factor),
In presenting CYP2D6 activity score data, an extensive metabolizer (EM) was defined as an individual with an activity score greater than 2; a poor metabolizer (PM) was defined with an activity score less than 1; and an intermediate metabolizer (IM) as an individual who has a score between 1 and 2.

[2] = literature refs [18],[19]; cited from earlier work

CC/C(=C(\c1ccccc1)c1ccc(OCCNC)cc1)c1ccccc1 [N-desmethyl-tamoxifen]
Association of plasma concentration with UGT2B7 genotype ([1]; FIG. 1, P<0.05 considered significant): not significantly associated
Mean plasma concentration, percent larger in the *2/*2 group ([1]; UGT2B7 *2/*2 group (FIG. 1A, 1D)): 42%

CC/C(=C(\c1ccc(O)cc1)c1ccc(OCCNC)cc1)c1ccccc1 [endoxifen, 4-hydroxy-N-desmethyl-tamoxifen]
Increase in concentration due to gene-gene interaction ([1]; female, human, in vivo): 220%
Increase in endoxifen concentration ([1]; female, human, in vivo): 58%
Mean plasma endoxifen concentration, percent higher in UGT2B7*2/*2 group than in each of *1/*2 and *1/*1 groups ([1]; female, human, in vivo): 34%
Range of mean plasma endoxifen concentration by compound UGT2B7 genotype and CYP2D6 score ([1]; female, human, in vivo): 12 to 100 nM
Range of mean plasma endoxifen concentration over combined UGT2B7 genotype and CYP2D6 score groups ([1]; female, human, in vivo): 19 to 107 nM
Association of plasma concentration with UGT2B7 genotype ([1]; in vivo): significant

CC/C(=C(\c1ccccc1)c1ccc(OCCN(C)C)cc1)c1ccccc1 [tamoxifen, Tamoxifen]
half-life [2]: 120 to 170 h
